In patent US6355799B1, “Substituted benzene compounds, process for their preparation, and herbicidal and defoliant compositions containing them” (ISK Americas Incorporated, priority 1997, dated 2002):

Tests used:
Assay type in all cases: in vivo
[1] = test system: redroot pigweed (Amaranthus retroflexus, AMARE); assay: Pre-emerge test, greenhouse herbicide activity screening; conditions: pre-emerge, 14 days after application, scale 0-100
Source text: (§1) A standard greenhouse herbicide activity screening system was used to evaluate the herbicidal efficacy and crop safety of these test compounds. Seven broadleaf weed species including redroot pigweed (Amaranthus retroflexus, AMARE, velvetleaf (Abutilon theophrasti, ABUTH), sicklepod (Cassia obtusifolia, CASOB), ivyleaf morningglory (Ipomoea hederacea, IPOHE), lambsquarters (Chenopodium album, CHEAL), common ragweed (Ambrosia artemisizfolia L., AMBEL), and cocklebur (Xanthium strumarium, XANST) were used as test species. Four grass weed species including green foxtail (Setaria viridis, SETVI), barnyardgrass (Echinochloa crus-galli, ECHCG), johnsongrass (Sorghum halepense, SORHA), and large crabgrass (Digitaria sanguinalis, DIGSA) were also used. In addition, three crop species, field corn (Zea mays L., var. Dekalb 535, CORN), soybean (Glycine max L., var. Pella 86, SOY), and is upland rice (Oryza sp., var. Tebonnet, RICE) were included.
(§2) All plants were grown in 10 cm square plastic pots which were filled with a sandy loam soil mix. For pre-emerge tests, seeds were planted one day prior to application of the test compounds. For post-emerge tests, seeds were planted 8-21 days prior to the test to allow emergence and good foliage development prior to application of the test substances. At the time of the post-emerge application, plants of all species were usually at the 2-3 leaf stage of development.
All test compounds Were dissolved in acetone and applied to the test units in a volume of 187 l /ha. […] Plants were arranged on a shelf so that the top of the canopy (post-emerge) or top of the soil surface (pre-emerge) was 40-45 cm below the nozzle. Pressurized air was used to force the test solution through the nozzle as it was mechanically advanced (via electrically driven chain drive) over the top of all test plants/pots. This application simulates a typical commercial field herbicide application.
(§3) In the post-emerge test, a commercial non-ionic surfactant was also included (0.25% v/v) to enhance wetting of the leaf surfaces of target plants. Immediately after application, test units of the pre-emerge applications were watered at the soil surface to incorporate the test materials. Subsequently, these test units were bottom-watered. Post-emerge test units were always bottom-watered.
(§4) At 14 days after application of the test materials, phytotoxicity ratings were recorded. A rating scale of 0-100 was used as previously described in Research Methods in Weed Science, 2nd edition, B. Truelove, Ed., Southern Weed Science Society, Auburn University, Auburn, Ala. 1977. Briefly, “0” corresponds to no damage and “100” corresponds to complete death of all plants in the test unit. This scale was used both to determine efficacy against weed species and damage to crop species. Herbicide activity data for various compounds of this invention, which are shown by compound No. in Tables 1-8, are shown in Tables 11 and 12.

[2] = test system: barnyardgrass (Echinochloa crus-galli, ECHCG); assay: as above; conditions: pre-emerge, 14 days after application, scale 0-100
Source text: as §1, §2
(§5) All test compounds Were dissolved in acetone and applied to the test units in a volume of 187 l /ha. Test materials were applied at rates ranging from 15 g ai/ha to 1000 g ai/ha using a track sprayer equipped with a TJ8001E even flow flat fan spray nozzle. Plants were arranged on a shelf so that the top of the canopy (post-emerge) or top of the soil surface (pre-emerge) was 40-45 cm below the nozzle. Pressurized air was used to force the test solution through the nozzle as it was mechanically advanced (via electrically driven chain drive) over the top of all test plants/pots. This application simulates a typical commercial field herbicide application.
as §3, §4

[3] = test system: green foxtail (Setaria viridis, SETVI); assay: as above; conditions: pre-emerge, 14 days after application, scale 0-100
Source text: as §1, §2, §5, §3, §4

[4] = test system: ivyleaf morningglory (Ipomoea hederacea, IPOHE); assay: as above; conditions: pre-emerge, 14 days after application, scale 0-100
Source text: as §1, §2, §5, §3, §4

[5] = test system: lambsquarters (Chenopodium album, CHEAL); assay: as above; conditions: pre-emerge, 14 days after application, scale 0-100
Source text: as §1, §2, §5, §3, §4

[6] = test system: large crabgrass (Digitaria sanguinalis, DIGSA); assay: as above; conditions: pre-emerge, 14 days after application, scale 0-100
Source text: as §1, §2, §5, §3, §4

[7] = test system: sicklepod (Cassia obtusifolia, CASOB); assay: as above; conditions: pre-emerge, 14 days after application, scale 0-100
Source text: as §1, §2, §5, §3, §4

[8] = test system: velvetleaf (Abutilon theophrasti, ABUTH); assay: as above; conditions: pre-emerge, 14 days after application, scale 0-100
Source text: as §1, §2, §5, §3, §4

[9] = test system: field corn (Zea mays L., var. Dekalb 535, CORN); assay: Pre-emerge test, crop safety; conditions: pre-emerge, 14 days after application, scale 0-100
Source text: as §1, §2, §5, §3, §4

[10] = test system: upland rice (Oryza sp., var. Tebonnet, RICE); assay: Pre-emerge test, crop safety; conditions: pre-emerge, 14 days after application, scale 0-100
Source text: as §1, §2, §5, §3, §4

[11] = test system: barnyardgrass (Echinochloa crus-galli, ECHCG); assay: Post-emerge test, greenhouse herbicide activity screening; conditions: post-emerge, 14 days after application, rating scale 0-100
Source text: as §1, §2, §5, §3, §4

[12] = test system: green foxtail (Setaria viridis, SETVI); assay: as above; conditions: post-emerge, 14 days after application, rating scale 0-100
Source text: as §1, §2, §5, §3, §4

[13] = test system: ivyleaf morningglory (Ipomoea hederacea, IPOHE); assay: as above; conditions: post-emerge, 14 days after application, rating scale 0-100
Source text: as §1, §2, §5, §3, §4

[14] = test system: lambsquarters (Chenopodium album, CHEAL); assay: as above; conditions: post-emerge, 14 days after application, rating scale 0-100
Source text: as §1, §2, §5, §3, §4

[15] = test system: large crabgrass (Digitaria sanguinalis, DIGSA); assay: as above; conditions: post-emerge, 14 days after application, rating scale 0-100
Source text: as §1, §2, §5, §3, §4

[16] = test system: redroot pigweed (Amaranthus retroflexus, AMARE); assay: as above; conditions: post-emerge, 14 days after application, rating scale 0-100
Source text: as §1, §2, §5, §3, §4

[17] = test system: sicklepod (Cassia obtusifolia, CASOB); assay: as above; conditions: post-emerge, 14 days after application, rating scale 0-100
Source text: as §1, §2, §5, §3, §4

[18] = test system: velvetleaf (Abutilon theophrasti, ABUTH); assay: as above; conditions: post-emerge, 14 days after application, rating scale 0-100
Source text: as §1, §2, §5, §3, §4

[19] = test system: field corn (Zea mays L., var. Dekalb 535, CORN); assay: Post-emerge test, crop safety; conditions: post-emerge, 14 days after application, rating scale 0-100
Source text: as §1, §2, §5, §3, §4

[20] = test system: upland rice (Oryza sp., var. Tebonnet, RICE); assay: Post-emerge test, crop safety; conditions: post-emerge, 63 g ai/ha, 14 days after application, rating scale 0-100
Source text: as §1, §2, §5, §3, §4

C=Cc1ccc(C(=O)Nc2c(OC)c(Br)cc(F)c2-n2c(=O)cc(C(F)(F)F)n(C)c2=O)cc1 [2-182]
phytotoxicity rating AMARE ([1]; 63 g ai/ha): 90 | phytotoxicity rating AMARE ([1]; 250 g ai/ha): 100 | phytotoxicity rating ECHCG ([2]; 63 g ai/ha): 10 | phytotoxicity rating ECHCG ([2]; 250 g ai/ha): 60 | phytotoxicity rating SETVI ([3]; 63 g ai/ha): 30 | phytotoxicity rating SETVI ([3]; 250 g ai/ha): 90 | phytotoxicity rating IPOHE ([4]; 63 g ai/ha): 0 | phytotoxicity rating IPOHE ([4]; 250 g ai/ha): 100 | phytotoxicity rating CHEAL ([5]; 63 g ai/ha): 100 | phytotoxicity rating CHEAL ([5]; 250 g ai/ha): 100 | phytotoxicity rating DIGSA ([6]; 63 g ai/ha): 30 | phytotoxicity rating DIGSA ([6]; 250 g ai/ha): 90 | phytotoxicity rating CASOB ([7]; 63 g ai/ha): 10 | phytotoxicity rating CASOB ([7]; 250 g ai/ha): 60 | phytotoxicity rating ABUTH ([8]; 63 g ai/ha): 100 | phytotoxicity rating ABUTH ([8]; 250 g ai/ha): 100 | phytotoxicity rating CORN (crop damage) ([9]; 63 g ai/ha): 0 | phytotoxicity rating CORN (crop damage) ([9]; 250 g ai/ha): 10 | phytotoxicity rating RICE (crop damage) ([10]; 63 g ai/ha): 15 | phytotoxicity rating RICE (crop damage) ([10]; 250 g ai/ha): 70 | ECHCG phytotoxicity rating ([11]; 63 g ai/ha): 0 | ECHCG phytotoxicity rating ([11]; 250 g ai/ha): 30 | SETVI phytotoxicity rating ([12]; 63 g ai/ha): 10 | SETVI phytotoxicity rating ([12]; 250 g ai/ha): 80 | IPOHE phytotoxicity rating ([13]; 63 g ai/ha): 100 | IPOHE phytotoxicity rating ([13]; 250 g ai/ha): 100 | CHEAL phytotoxicity rating ([14]; 63 g ai/ha): 95 | CHEAL phytotoxicity rating ([14]; 250 g ai/ha): 100 | DIGSA phytotoxicity rating ([15]; 63 g ai/ha): 0 | DIGSA phytotoxicity rating ([15]; 250 g ai/ha): 20 | AMARE phytotoxicity rating ([16]; 63 g ai/ha): 90 | AMARE phytotoxicity rating ([16]; 250 g ai/ha): 95 | CASOB phytotoxicity rating ([17]; 63 g ai/ha): 60 | CASOB phytotoxicity rating ([17]; 250 g ai/ha): 95 | ABUTH phytotoxicity rating ([18]; 63 g ai/ha): 100 | ABUTH phytotoxicity rating ([18]; 250 g ai/ha): 100 | CORN phytotoxicity rating (crop damage) ([19]; 63 g ai/ha): 5 | CORN phytotoxicity rating (crop damage) ([19]; 250 g ai/ha): 70 | RICE phytotoxicity rating (crop damage) [20]: 0
